This note sets out measurements from article PMC7136958, “Targeting the pregnane X receptor using microbial metabolite mimicry” (EMBO Molecular Medicine, 2020).

In data set [1] the target is T1, PXR (Homo sapiens, UniProt O75469).
T1 sequence (O75469 1-434): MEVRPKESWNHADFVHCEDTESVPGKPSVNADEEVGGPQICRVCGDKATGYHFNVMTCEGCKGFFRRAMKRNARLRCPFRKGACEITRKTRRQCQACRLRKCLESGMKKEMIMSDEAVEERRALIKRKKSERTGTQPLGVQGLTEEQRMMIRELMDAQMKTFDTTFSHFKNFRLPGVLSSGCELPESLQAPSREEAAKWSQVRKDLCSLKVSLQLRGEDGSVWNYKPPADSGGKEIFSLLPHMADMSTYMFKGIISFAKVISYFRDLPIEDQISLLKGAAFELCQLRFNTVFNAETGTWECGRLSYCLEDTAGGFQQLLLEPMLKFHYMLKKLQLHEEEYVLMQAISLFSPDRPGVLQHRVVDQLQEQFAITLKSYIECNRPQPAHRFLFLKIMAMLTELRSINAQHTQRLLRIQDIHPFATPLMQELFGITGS
Kind of data set: PXR reporter (p3A4-luc luciferase) assay in LS180 cells transiently transfected with wild-type PXR. The settings on record: for FOLD INDUCTION of PXR reporter luciferase activity: 24 h, over UT; for fold induction at 0.001 µM / fold induction at 0.01 µM / fold induction at 0.1 µM / fold induction at 1 µM / fold induction at 10 µM / fold induction at 25 µM: LS180, read-out: FOLD INDUCTION of PXR reporter luciferase activity.

The target in data set [2] is T2, AhR (Homo sapiens, UniProt P35869).
T2 construct: endogenous in cells; host or cells: AZ-AHR (HepG2)
T2 sequence (P35869 11-848): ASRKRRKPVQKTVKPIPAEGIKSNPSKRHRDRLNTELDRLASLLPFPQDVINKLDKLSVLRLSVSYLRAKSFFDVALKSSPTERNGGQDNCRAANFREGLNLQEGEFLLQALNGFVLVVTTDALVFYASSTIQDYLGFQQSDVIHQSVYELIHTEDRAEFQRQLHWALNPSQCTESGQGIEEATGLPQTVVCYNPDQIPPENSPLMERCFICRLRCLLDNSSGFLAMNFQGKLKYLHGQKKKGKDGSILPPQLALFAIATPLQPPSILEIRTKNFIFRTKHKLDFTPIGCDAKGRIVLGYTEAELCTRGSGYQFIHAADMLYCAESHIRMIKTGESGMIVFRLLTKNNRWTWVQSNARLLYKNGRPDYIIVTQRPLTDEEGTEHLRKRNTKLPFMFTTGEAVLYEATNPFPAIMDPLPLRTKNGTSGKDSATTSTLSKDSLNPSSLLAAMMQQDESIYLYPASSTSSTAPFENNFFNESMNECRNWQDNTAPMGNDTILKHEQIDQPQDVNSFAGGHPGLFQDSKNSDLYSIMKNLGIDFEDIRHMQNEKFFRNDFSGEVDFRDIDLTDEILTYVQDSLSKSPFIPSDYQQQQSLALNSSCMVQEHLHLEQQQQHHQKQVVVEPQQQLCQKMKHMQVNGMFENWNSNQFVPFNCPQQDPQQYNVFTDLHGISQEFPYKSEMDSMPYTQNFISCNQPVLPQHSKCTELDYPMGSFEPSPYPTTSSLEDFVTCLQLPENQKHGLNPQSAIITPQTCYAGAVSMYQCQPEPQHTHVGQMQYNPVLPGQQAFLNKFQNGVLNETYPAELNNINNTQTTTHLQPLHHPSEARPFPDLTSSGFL
The data set is described as follows: AhR reporter assay, HepG2 cells stably expressing pCYP1A1 luciferase (AZ-AHR). Type of data set: cell-based. The settings on record: AZ-AHR cells, fold vs DMSO; for fold induction at 24 h, 0.001 µM / fold induction at 24 h, 0.01 µM / fold induction at 24 h, 0.1 µM / fold induction at 24 h, 1 µM / fold induction at 24 h, 10 µM: human. The method, then: Incubations were performed in four technical replicates.

Data set [3] has as its system PXR target genes in LS174T PXR-KO cells. Kind of data set: PXR target gene mRNA in LS174T PXR-KO cells. Format: cell-based, human. The protocol: Figure EV5 LS174T PXR‐knockout (KO) cells are not responsive to PXR ligands • Expression of CYP1A1 and CYP3A4 mRNA in PXR‐knockout and wild‐type LS174T. […] Experiment was performed in 4 independent cell passages (6th, 8th, 10th, and 12th). The mRNA expression of CYP1A1 and CYP3A4 mRNA was determined by RT–PCR, and data were normalized to GAPDH mRNA level. (a) CYP1A1 mRNA. (b) CYP3A4 mRNA. Data are expressed as mean ± SD. • Immunoblot for PXR protein expression in PXR wild‐type and knockout (KO) cells. Experiment was performed in nine independent cell passages (P). • Fold mRNA expression of PXR target genes. Each tissue PCR was repeated in quadruplicate. The expression was normalized to internal control, GAPDH. The entire experiment was repeated n > 2 for reproducibility. The data shown are one representative experiment. Source data are available online for this figure.
Briefly, cells were first tested negative for mycoplasma.

Molecules are shown by their SMILES.

For the molecule `O=S(=O)(c1ccccc1)n1c(C(O)c2ccncc2)cc2ccccc21` (racemic) [FKK1], the “aver (mean luciferase signal of H1-H4)” value in data set [1] (1 nM) was determined as 3470.0; in data set [1] (10 nM) it was 3768.8; in data set [1] (100 nM), 3738.8; in data set [1] (1 uM) it was 28708.8; in data set [1] (10 uM) it was 56319.0; in data set [1] (25 uM), 51971.3. Also, the “FOLD INDUCTION of PXR reporter luciferase activity” value was determined as 1.6 fold in data set [1] (1 nM); 1.8 fold in data set [1] (10 nM); 1.7 fold in data set [1] (100 nM); 13.4 fold in data set [1] (1 uM); 26.3 fold in data set [1] (10 uM); 24.3 fold in data set [1] (25 uM). In addition, the “FOLD INDUCTION (AZ-AHR luciferase)” value in data set [2] (1 nM) amounted to 0.7 fold; in data set [2] (10 nM) it was 0.746 fold; in data set [2] (100 nM), 1.1 fold; in data set [2] (1µM) it was 0.9 fold; in data set [2] (10 µM), 2.8 fold.
For the molecule `O=C(c1ccncc1)c1cc2ccccc2n1S(=O)(=O)c1ccccc1` [FKK5, (1-(phenylsulfonyl)-1H-indol-2-yl)(pyridin-4-yl)methanone], the “aver (mean luciferase signal of H1-H4)” value in data set [1] (1 nM) was determined as 4417.0; in data set [1] (10 nM), 4539.3; in data set [1] (100 nM), 4741.5; in data set [1] (1 uM), 29157.3; in data set [1] (10 uM), 116028.0; in data set [1] (25 uM), 119010.3. In data set [1], the fold induction at 0.001 µM is 1.4. The fold induction at 0.01 µM in data set [1] was determined as 1.4. Also, the fold induction at 0.1 µM in data set [1] was determined as 1.5. In addition, the fold induction at 1 µM in data set [1] was found to be 9.1. For the same molecule, the fold induction at 10 µM in data set [1] came to 36.4. The fold induction at 25 µM in data set [1] was determined as 37.3. For the same molecule, the “PXR target gene induction” value in data set [3] is recorded as “did not induce”. The fold induction at 24 h, 0.001 µM in data set [2] (1 nM) is 0.755. Further, the fold induction at 24 h, 0.01 µM in data set [2] (10 nM) worked out at 0.8. Besides, in data set [2] (100 nM), the fold induction at 24 h, 0.1 µM was 0.7. Also, in data set [2] (1µM), the fold induction at 24 h, 1 µM was 0.7. For the same molecule, in data set [2] (10 µM), the fold induction at 24 h, 10 µM worked out at 1.2.
Take `C#CCC(O)(c1ccncc1)c1cc2ccccc2n1S(=O)(=O)c1ccccc1` (stereo not drawn) [FKK6]: the “aver (mean luciferase signal of H1-H4)” value in data set [1] (1 nM) turned out to be 5692.0. Moreover, the “aver (mean luciferase signal of H1-H4)” value in data set [1] (10 nM) amounted to 9322.0. In data set [1] (100 nM), the “aver (mean luciferase signal of H1-H4)” value came out at 9089.3. In addition, in data set [1] (1 uM), the “aver (mean luciferase signal of H1-H4)” value amounted to 73854.3. Moreover, the “aver (mean luciferase signal of H1-H4)” value in data set [1] (10 uM) is 113299.3. For the same molecule, the “aver (mean luciferase signal of H1-H4)” value in data set [1] (25 uM) stood at 99812.0. In data set [1], the fold induction at 0.001 µM came out at 1.8, the fold induction at 0.01 µM was 2.9, the fold induction at 0.1 µM was 2.8 and the fold induction at 1 µM came out at 23.1. In data set [1], the fold induction at 10 µM is 35.5 and the fold induction at 25 µM is 31.3. For the same molecule, in data set [1] (cell-based transactivation), the “PXR activation (in words)” value was “activated human PXR”. Moreover, in data set [3], the “PXR target gene induction” value is recorded as “did not induce”. In addition, the fold induction at 24 h, 0.001 µM in data set [2] (1 nM) was 0.8. In addition, the fold induction at 24 h, 0.01 µM in data set [2] (10 nM) was 0.7. Moreover, the fold induction at 24 h, 0.1 µM in data set [2] (100 nM) came to 0.8. For the same molecule, the fold induction at 24 h, 1 µM in data set [2] (1µM) is 1.1. Moreover, in data set [2] (10 µM), the fold induction at 24 h, 10 µM turned out to be 3.2.
